Legend:
[1] = molecular target: T1, recombinant soluble C domain of ACE1 (sACE1) (Homo sapiens, UniProt P12821); test: SPR determination of affinity between TCM metabolites and immobilized sACE1 (Biacore T200, CM5 chip); assay type: binding; conditions: for Binding to sACE1 by SPR (in words): SPR assay; for Kd: SPR, sACE1 on CM5 chip, 0.39-50.0 µM metabolite, 25 °C, read-out: KD (equilibrium dissociation constant)
T1 construct: The cDNA coding for the soluble C domain of ACE1 (Ile640-Ala1231) was obtained by PCR amplification; HSA signal peptide (N); made in house; host or cells: HEK293 (transient transfection, protein purified from the culture supernatant)

[2] = test system: ACE1 (angiotensin-converting enzyme); test: ACE inhibition measurement with ACE1 activity test kit (fluorescence); assay type: biochemical; conditions: for Inhibition rate (%) of ACE1 activity, relative to captopril taken as 100%: TCM metabolite at 25 uM

T1 sequence (P12821 640-1231): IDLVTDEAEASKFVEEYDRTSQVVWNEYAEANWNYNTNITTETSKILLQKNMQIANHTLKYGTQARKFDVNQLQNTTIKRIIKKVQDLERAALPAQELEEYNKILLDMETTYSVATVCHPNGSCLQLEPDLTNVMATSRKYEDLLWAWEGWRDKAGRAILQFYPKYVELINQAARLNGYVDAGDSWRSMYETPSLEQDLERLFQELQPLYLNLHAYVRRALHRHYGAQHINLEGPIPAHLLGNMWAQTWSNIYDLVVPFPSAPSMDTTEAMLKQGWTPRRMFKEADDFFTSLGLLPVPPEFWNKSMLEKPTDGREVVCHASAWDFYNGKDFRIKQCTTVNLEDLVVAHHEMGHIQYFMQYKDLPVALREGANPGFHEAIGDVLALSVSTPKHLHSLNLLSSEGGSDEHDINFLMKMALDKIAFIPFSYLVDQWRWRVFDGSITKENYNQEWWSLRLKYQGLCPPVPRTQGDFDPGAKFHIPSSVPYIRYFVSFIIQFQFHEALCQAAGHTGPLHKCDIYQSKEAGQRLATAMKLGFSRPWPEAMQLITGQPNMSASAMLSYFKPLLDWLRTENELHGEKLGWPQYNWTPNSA

| Compound | Binding to sACE1 by SPR (in words) [1] | Inhibition rate (%) of ACE1 activity, relative to captopril taken as 100% [2] [%] | Kd [1] [µM] | ACE1 inhibition in vitro (in words) ([2]; enzyme activity test) | Inhibition rate (%) of ACE1 activity ([2]; captopril (positive control) at 1 uM) [%] |
| --- | --- | --- | --- | --- | --- |
| O=c1c(O)c(-c2ccc(O)c(O)c2)oc2cc(O)cc(O)c12 [Quercetin] | bound to sACE1 on the chip in a dose-dependent manner |  |  |  |  |
| Procyanidin | bound to sACE1 on the chip in a dose-dependent manner | 67.5 |  |  |  |
| O=c1c(O[C@@H]2O[C@H](CO)[C@@H](O)[C@H](O)[C@H]2O)c(-c2ccc(O)c(O)c2)oc2cc(O)cc(O)c12 [Isoquercitrin] | bound to sACE1 on the chip in a dose-dependent manner | 35.6 | 5.76 |  |  |
| Oc1ccc(/C=C/c2cc(O)cc(O)c2)cc1 [Resveratrol] |  |  |  | did not inhibit ACE1 in vitro |  |
| O=c1cc(-c2ccc(O)c(O)c2)oc2cc(O)c([C@@H]3O[C@H](CO)[C@@H](O)[C@H](O)[C@H]3O)c(O)c12 [Homoorientin] | bound to sACE1 on the chip in a dose-dependent manner |  | 10.2 |  |  |
| O=c1c(-c2ccc(O)cc2)coc2c([C@@H]3O[C@H](CO)[C@@H](O)[C@H](O)[C@H]3O)c(O)ccc12 [Puerarin] | bound to sACE1 on the chip in a dose-dependent manner |  | 13.8 |  |  |
| Oc1cc(O)c2c(c1)O[C@H](c1ccc(O)c(O)c1)[C@@H](O)C2 [Cianidanol] | bound to sACE1 on the chip in a dose-dependent manner |  | 48.3 |  |  |
| C[C@H](CS)C(=O)N1CCC[C@H]1C(=O)O [Captopril, reference compound] |  |  |  |  | 101.5 |
| O=c1cc(-c2ccc(O)c(O)c2)oc2c([C@@H]3O[C@H](CO)[C@@H](O)[C@H](O)[C@H]3O)c(O)cc(O)c12 [Orientin] | bound to sACE1 on the chip in a dose-dependent manner |  | 9.32 |  |  |

Reference: paper PMC10609061, “Detection of Various Traditional Chinese Medicinal Metabolites as Angiotensin-Converting Enzyme Inhibitors: Molecular Docking, Activity Testing, and Surface Plasmon Resonance Approaches” (Molecules, 2023)
